This is an account of results in US12384792B2, “Solid forms of isoquinolinones, and process of making, composition comprising, and methods of using the same” (Twelve Therapeutics, Inc., priority 2015, dated 2025).

Converted amounts (≈) assume the structure as drawn. Read-outs that look alike come from different tables or passages of the source.

Holding throughout (assay type): physicochemical
Data set [1] can be described thus: Gravimetric vapour sorption (GVS). The following applies: for GVS total weight change 0-90% RH: 25° C. Here is the method: Gravimetric Vapour Sorption (GVS)
Sorption isotherms were obtained using a SMS DVS Intrinsic moisture sorption analyser, controlled by DVS Intrinsic Control software v1.0.1.2 (or v 1.0.1.3). The sample temperature was maintained at 25° C. by the instrument controls. The humidity was controlled by mixing streams of dry and wet nitrogen, with a total flow rate of 200 ml/min The relative humidity was measured by a calibrated Rotronic probe (dynamic range of 1.0-100% RH), located near the sample. The weight change, (mass relaxation) of the sample as a function of % RH was constantly monitored by the microbalance (accuracy ±0.005 mg). Typically 5-20 mg of sample was placed in a tared mesh stainless steel basket under ambient conditions. The sample was loaded and unloaded at 40% RH and 25° C. (typical room conditions). A moisture sorption isotherm was performed as outlined below (2 scans giving 1 complete cycle). The standard isotherm was performed at 25° C. at 10% RH intervals over a 0-90% RH range. Data analysis was carried out using Microsoft Excel using DVS Analysis Suite v6.2 (or 6.1 or 6.0).

Data set [2] can be described thus: Static stability on storage at controlled temperature/RH (XRPD, purity). The text has this:
(§1) See tables below for the summarized results.

The nature of data set [3]: Static storage stability of solid forms (40° C./75% RH, 25° C./96% RH), form checked by XRPD. The conditions noted are these: for Static Stability 40° C./75% RH: dried screening sample, solid form after 7 and 36 days at 40° C./75% RH.
The nature of data set [4]: Gravimetric vapour sorption (GVS) isotherm, hygroscopicity. The conditions noted are these: for weight increase (GVS): increase in relative humidity from about 0 to about 90% relative humidity.
Data set [5] in a line: Competitive slurry/water activity experiments with Forms 1 and 6. The source says:
IPA/water and ACN/water were selected as suitable solvents for the competitive slurry/water activity experiments. These solvent mixtures were selected to have some solubility of the Compound 1 free base and to be able to obtain a wide range of water activities by varying the water content. IPA/water was selected as this solvent often formed solvated forms of the free base and ACN/water was selected as this solvent produced only Form 1 of the free base during the polymorph screening experiments.
There was one exception to this—the IPA/water sample at 50° C. and at a water activity of 0.8 gave Form 1 rather than Form 4.

The nature of data set [6]: Kinetic solubility after 30 min in water and in 0.1M HCl. The conditions noted are these: for solubility kinetic at 30 min: thermodynamic from solid, cocrystal, in duplicate, read-out: 30 min Kinetic solubility (pH).
Source text: as §1

A short description of data set [7]: Solubility screen: solubility assessment of amorphous Compound 1 in solvents. The following applies: thermodynamic from solid, room temperature. Here is the method: Amorphous Compound 1 (30 mg) was weighed out and 100 μl (˜3 vols) solvent was added at room temperature. Many samples initially dissolved but precipitated back out again after stirring for a few minutes. It was assumed that these samples had crystallized, so additional portions of solvent were added to determine the solubility of the crystalline material. See Table 1 for solubility assessment of amorphous Compound 1. […]

Setting [8] is: after 63 days, no change in form but loss of crystallinity.
Where [9] appears, read: 7 d storage at 40° C./75% RH and at 25° C./97% RH, result stated for both conditions.

For the compound `C[C@H](NC(=O)c1c(N)nn2cccnc12)c1cc2cccc(C#Cc3cnn(C)c3)c2c(=O)n1-c1ccccc1` [Form 1 reference], in data set [1] (0-90% RH), the “Hygroscopicity by GVS” value was “non-” and the “GVS total weight change 0-90% RH” value is about 0.5 wt %. Moreover, in data set [2] (after 7 days), the “Static stability at 25° C./96% RH, XRPD” value is reported as “no change after 7 days,” and the “Static stability at 40° C./75% RH, XRPD” value was “no change after 7 days,”. In data set [2] (setting [8]), the “Static stability at 25° C./96% RH, form by XRPD” value is recorded as “after 63 days no change” and the “Static stability at 40° C./75% RH, form by XRPD” value is recorded as “after 63 days no change”.
For `C[C@H](NC(=O)c1c(N)nn2cccnc12)c1cc2cccc(C#Cc3cnn(C)c3)c2c(=O)n1-c1ccccc1` [Form 1, (S)-2-amino-N-(1-(8-((1-methyl-1H-pyrazol-4-yl)ethynyl)-1-oxo-2-phenyl-1,2-dihydroisoquinolin-3-yl)ethyl)pyrazolo[1,5-a]pyrimidine-3-carboxamide], the stability after storage entry in data set [3] (25° C./96% RH for more than 9 months) is given as “stable”. In data set [3] (40° C./75% RH for more than 9 months), the stability after storage result is “stable”. The “Static Stability 40° C./75% RH” value in data set [3] was “no change after 7”. In addition, in data set [4], the hygroscopicity result is listed as “non-hygroscopic” and the “weight increase (GVS)” value is reported as “about 0.5%”. Moreover, the “Relative stability of forms in ACN/water slurries” value in data set [5] (all ACN/water experiments except 50° C. and 5° C. at water activity 0.8) was “most stable form”. In data set [5] (all temperatures (5, 25, 50° C.) and water activities (0.2-0.8), slurried 4 days), the “Relative stability of forms in IPA/water slurries” value is listed as “more stable than Form 6”.
Take `C[C@H](NC(=O)c1c(N)nn2cccnc12)c1cc2cccc(C#Cc3cnn(C)c3)c2c(=O)n1-c1ccccc1` [Form 2, (S)-2-amino-N-(1-(8-((1-methyl-1H-pyrazol-4-yl)ethynyl)-1-oxo-2-phenyl-1,2-dihydroisoquinolin-3-yl)ethyl)pyrazolo[1,5-a]pyrimidine-3-carboxamide]: the “Static Stability 40° C./75% RH” value in data set [3] is recorded as “amorphous after 7”. In addition, in data set [4], the hygroscopicity entry is “non-hygroscopic” and the “weight increase (GVS)” value is recorded as “about 1.3%”.
As to `C[C@H](NC(=O)c1c(N)nn2cccnc12)c1cc2cccc(C#Cc3cnn(C)c3)c2c(=O)n1-c1ccccc1` [Form 3, (S)-2-amino-N-(1-(8-((1-methyl-1H-pyrazol-4-yl)ethynyl)-1-oxo-2-phenyl-1,2-dihydroisoquinolin-3-yl)ethyl)pyrazolo[1,5-a]pyrimidine-3-carboxamide], the “Static Stability 40° C./75% RH” value in data set [3] is “remains Form 3”.
On the same count and under the same terms, to `C[C@H](NC(=O)c1c(N)nn2cccnc12)c1cc2cccc(C#Cc3cnn(C)c3)c2c(=O)n1-c1ccccc1` [Form 4, (S)-2-amino-N-(1-(8-((1-methyl-1H-pyrazol-4-yl)ethynyl)-1-oxo-2-phenyl-1,2-dihydroisoquinolin-3-yl)ethyl)pyrazolo[1,5-a]pyrimidine-3-carboxamide] belongs “remains Form 4”.
As to `C[C@H](NC(=O)c1c(N)nn2cccnc12)c1cc2cccc(C#Cc3cnn(C)c3)c2c(=O)n1-c1ccccc1` [Form 6, (S)-2-amino-N-(1-(8-((1-methyl-1H-pyrazol-4-yl)ethynyl)-1-oxo-2-phenyl-1,2-dihydroisoquinolin-3-yl)ethyl)pyrazolo[1,5-a]pyrimidine-3-carboxamide], the “weight increase (GVS)” value in data set [4] is listed as “about 14%”. Further, in data set [1] (0-90% RH), the “Hygroscopicity by GVS” value is “hygroscopic. Large steps 40-60%” and the “GVS total weight change 0-90% RH” value is recorded as 15.0 wt %. The “Static stability at 40° C./75% RH, XRPD” value in data set [2] (after 7 days) is “subtle changes in XRPD after”. Besides, in data set [2] (after 26 days), the “Static stability at 25° C./96% RH, XRPD” value is given as “no change in XRPD after 26” and the “Static stability at 40° C./75% RH, XRPD” value is “no further changes after 26”. Moreover, in data set [5] (5° C., ACN/water, water activity 0.8 (15 vol % water)), the “Relative stability of forms in ACN/water slurry” value is “more stable than Form 1”.
With `C[C@H](NC(=O)c1c(N)nn2cccnc12)c1cc2cccc(C#Cc3cnn(C)c3)c2c(=O)n1-c1ccccc1` [Form 7, (S)-2-amino-N-(1-(8-((1-methyl-1H-pyrazol-4-yl)ethynyl)-1-oxo-2-phenyl-1,2-dihydroisoquinolin-3-yl)ethyl)pyrazolo[1,5-a]pyrimidine-3-carboxamide], in data set [3], the “Static Stability 40° C./75% RH” value is “remains Form 7”.
Consider `C[C@H](NC(=O)c1c(N)nn2cccnc12)c1cc2cccc(C#Cc3cnn(C)c3)c2c(=O)n1-c1ccccc1` [Form P1C3], for which the “weight increase (GVS)” value in data set [4] was “about 3.7%”. Further, the GVS hysteresis entry in data set [1] is reported as “No hysteresis”. Besides, in data set [1] (0-90% RH), the “GVS weight gain from 0-90% RH” value came to 3.67% and the “Hygroscopicity by GVS” value is “moderately hygroscopic”. In data set [1] (from 0-90% RH, cycle 2), this compound showed a GVS weight gain of 3.67%. Besides, in data set [2] (setting [9]), the “HPLC purity change after 7 d 40° C. 75% RH 25° C. 97% RH” value is on record as under 3% for both and the “XRPD after 7 d 40° C. 75% RH 25° C. 97% RH” value is “no change”. For the same compound, the “XRPD after 7 d at 25° C. 97% RH” value in data set [2] (after 7 d) is recorded as “no changes”. Also, the “Static stability at 40° C./75% RH, XRPD” value in data set [2] (after 7 days) is on record as “no changes”. Besides, in data set [2] (after a week), the “Stability at 25° C./96% RH, purity and XRPD” value is listed as “no significant change”; the “Stability at 40° C./75% RH, purity and XRPD” value was “no significant change”. The solubility (kinetic) at 30 min in data set [6] (0.1M HCl, pH 1.3, simulated gastric fluid, in 0.1M HCl, pH 1.3) was 0.02 mg/mL (≈ 0.0378 mM). In addition, the “Kinetic solubility in 0.1M HCl compared with the free base” value in data set [6] (after 30 min, 0.1M HCl) is on record as “very similar to the free base solubility”. Also, the “Kinetic solubility in water compared with the free base” value in data set [6] (after 30 min, water) was “slightly higher solubility values”. Further, the “Kinetic solubility with respect to the free base” value in data set [6] (summary statement) is given as “slight improve in solubility”. Moreover, the kinetic solubility at 30 min in data set [6] (water, pH 2.9, water, in water, pH 2.9, 3.0) worked out at 0.04 mg/mL (≈ 0.0757 mM).
For `C[C@H](NC(=O)c1c(N)nn2cccnc12)c1cc2cccc(C#Cc3cnn(C)c3)c2c(=O)n1-c1ccccc1` [amorphous Compound 1, (S)-2-amino-N-(1-(8-((1-methyl-1H-pyrazol-4-yl)ethynyl)-1-oxo-2-phenyl-1,2-dihydroisoquinolin-3-yl)ethyl)pyrazolo[1,5-a]pyrimidine-3-carboxamide], the solubility in data set [7] (organic solvent or mixture, in 1,2-Dimethoxyethane) was under 17 mg/mL; in data set [7] (organic solvent or mixture, in 1,4-Dioxane), under 17 mg/mL; in data set [7] (organic solvent or mixture, in 1-Propanol) it was under 17 mg/mL; in data set [7] (organic solvent or mixture, in 2-Methoxyethanol) it was at least 333 mg/mL; in data set [7] (organic solvent or mixture, in 2-Methyl-1-propanol) it was under 17 mg/mL; in data set [7] (organic solvent or mixture, in 2-Propanol), under 17 mg/mL. The solubility was under 17 mg/mL in data set [7] (organic solvent or mixture, in Acetone); under 17 mg/mL in data set [7] (organic solvent or mixture, in Acetonitrile); under 17 mg/mL in data set [7] (organic solvent or mixture, in Chloroform); under 17 mg/mL in data set [7] (organic solvent or mixture, in Cyclohexane); 17 to 20 mg/mL (≈ 32.2 to 37.8 mM) in data set [7] (organic solvent or mixture, in Dichloromethane); at least 333 mg/mL in data set [7] (organic solvent or mixture, in Dimethyl sulfoxide). Moreover, the solubility in data set [7] (organic solvent or mixture, in Ethanol) was under 17 mg/mL; in data set [7] (organic solvent or mixture, in Ethyl acetate), under 17 mg/mL; in data set [7] (organic solvent or mixture, in Ethyleneglycol), under 17 mg/mL; in data set [7] (organic solvent or mixture, in IPA/Water (95/5 v/v)), under 17 mg/mL; in data set [7] (organic solvent or mixture, in Isopropyl acetate) it was under 17 mg/mL; in data set [7] (organic solvent or mixture, in MEK), under 17 mg/mL. Besides, the solubility was under 17 mg/mL in data set [7] (organic solvent or mixture, in MIBK); under 17 mg/mL in data set [7] (organic solvent or mixture, in Methanol); at least 333 mg/mL in data set [7] (organic solvent or mixture, in N,N-Dimethylformamide); 25 to 33 mg/mL (≈ 47.3 to 62.4 mM) in data set [7] (organic solvent or mixture, in Nitromethane); under 17 mg/mL in data set [7] (organic solvent or mixture, in THF/Water (95/5 v/v)); under 17 mg/mL in data set [7] (organic solvent or mixture, in Tetrahydrofuran). The solubility in data set [7] (organic solvent or mixture, in Toluene) was under 17 mg/mL; in data set [7] (organic solvent or mixture, in n-Heptane) it was under 17 mg/mL; in data set [7] (organic solvent or mixture, in tert-Butylmethyl ether), under 17 mg/mL; in data set [7] (in Water), under 17 mg/mL.
